Test results from US12077503B2, “Substituted cyclic amides and their use as herbicides” (FMC CORPORATION, priority 2015, dated 2024).

Columns and labels:
Assay in all cases: Test C preemergence
Format in all cases: in vivo
[1] = system: Galium (catchweed bedstraw, Galium aparine); conditions: for Plant response rating, Galium: scale 0 to 100, 0 no effect, 100 complete control
Outline: (§1)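 Assessment: visual, 13–15 d after treatment, 0 (no effect) to 100 (complete control) relative to controls. Treatment: preemergence to seeds in loam-sand soil, or postemergence to 1- to 4-leaf plants in peat-based medium. Formulation: non-phytotoxic solvent mixture with surfactant.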

[2] = system: barnyardgrass (Echinochloa crus-galli); conditions: for Plant response rating, Barnyardgrass: scale 0 to 100, 0 no effect, 100 complete control
Outline: as §1

[3] = system: blackgrass (Alopecurus myosuroides); conditions: for Plant response rating, Blackgrass: scale 0 to 100, 0 no effect, 100 complete control
Outline: as §1

[4] = system: corn (Zea mays); conditions: for Plant response rating, Corn: scale 0 to 100, 0 no effect, 100 complete control
Outline: as §1

[5] = system: crabgrass, large (large crabgrass, Digitaria sanguinalis); conditions: for Plant response rating, Crabgrass, Large: scale 0 to 100, 0 no effect, 100 complete control
Outline: as §1

[6] = system: foxtail, giant (giant foxtail, Setaria faberii); conditions: for Plant response rating, Foxtail, Giant: scale 0 to 100, 0 no effect, 100 complete control
Outline: as §1

[7] = system: johnsongrass (Sorghum halepense); conditions: for Plant response rating, Johnsongrass: scale 0 to 100, 0 no effect, 100 complete control
Outline: as §1

[8] = system: lambsquarters (Chenopodium album); conditions: for Plant response rating, Lambsquarters: scale 0 to 100, 0 no effect, 100 complete control
Outline: as §1

[9] = system: morningglory (Ipomoea coccinea); conditions: for Plant response rating, Morningglory: scale 0 to 100, 0 no effect, 100 complete control
Outline: as §1

[10] = system: nutsedge, yellow (yellow nutsedge, Cyperus esculentus); conditions: for Plant response rating, Nutsedge, Yellow: scale 0 to 100, 0 no effect, 100 complete control
Outline: as §1

[11] = system: oilseed rape (Brassica napus); conditions: for Plant response rating, Oilseed Rape: scale 0 to 100, 0 no effect, 100 complete control
Outline: as §1

[12] = system: ragweed (common ragweed, Ambrosia elatior); conditions: for Plant response rating, Ragweed: scale 0 to 100, 0 no effect, 100 complete control
Outline: as §1

[13] = system: ryegrass, Italian (Italian ryegrass, Lolium multiflorum); conditions: for Plant response rating, Ryegrass, Italian: scale 0 to 100, 0 no effect, 100 complete control
Outline: as §1

[14] = system: soybean (Glycine max); conditions: for Plant response rating, Soybean: scale 0 to 100, 0 no effect, 100 complete control
Outline: as §1

[15] = system: velvetleaf (Abutilon theophrasti); conditions: for Plant response rating, Velvetleaf: scale 0 to 100, 0 no effect, 100 complete control
Outline: as §1

[16] = system: waterhemp (common waterhemp, Amaranthus rudis); conditions: for Plant response rating, Waterhemp: scale 0 to 100, 0 no effect, 100 complete control
Outline: as §1

[17] = system: wheat (winter wheat, Triticum aestivum); conditions: for Plant response rating, Wheat: scale 0 to 100, 0 no effect, 100 complete control
Outline: as §1

[18] = 31 g ai/ha, 0 is no effect, 100 is complete control

CN1CC(c2cccc(OC(F)F)c2)C(C(=O)Nc2cccc(F)c2F)C1=O (centres unmarked) [Compound 616]
Plant response rating (scale of 0 to 100), Galium [1, 18]: 90 | Plant response rating, Galium ([1]; 62 g ai/ha): 85 | Plant response rating, Galium ([1]; 125 g ai/ha): 85 | Plant response rating, Galium ([1]; 250 g ai/ha): 90 | Plant response rating (scale of 0 to 100), Barnyardgrass [2, 18]: 90 | Plant response rating, Barnyardgrass ([2]; 62 g ai/ha): 90 | Plant response rating, Barnyardgrass ([2]; 125 g ai/ha): 95 | Plant response rating, Barnyardgrass ([2]; 250 g ai/ha): 95 | Plant response rating (scale of 0 to 100), Blackgrass [3, 18]: 30 | Plant response rating, Blackgrass ([3]; 62 g ai/ha): 45 | Plant response rating, Blackgrass ([3]; 125 g ai/ha): 80 | Plant response rating, Blackgrass ([3]; 250 g ai/ha): 80 | Plant response rating (scale of 0 to 100), Corn [4, 18]: 55 | Plant response rating, Corn ([4]; 62 g ai/ha): 65 | Plant response rating, Corn ([4]; 125 g ai/ha): 80 | Plant response rating, Corn ([4]; 250 g ai/ha): 85 | Plant response rating (scale of 0 to 100), Crabgrass, Large [5, 18]: 90 | Plant response rating, Crabgrass, Large ([5]; 62 g ai/ha): 90 | Plant response rating, Crabgrass, Large ([5]; 125 g ai/ha): 95 | Plant response rating, Crabgrass, Large ([5]; 250 g ai/ha): 95 | Plant response rating (scale of 0 to 100), Foxtail, Giant [6, 18]: 90 | Plant response rating, Foxtail, Giant ([6]; 62 g ai/ha): 90 | Plant response rating, Foxtail, Giant ([6]; 125 g ai/ha): 90 | Plant response rating, Foxtail, Giant ([6]; 250 g ai/ha): 95 | Plant response rating (scale of 0 to 100), Johnsongrass [7, 18]: 60 | Plant response rating, Johnsongrass ([7]; 62 g ai/ha): 85 | Plant response rating, Johnsongrass ([7]; 125 g ai/ha): 75 | Plant response rating, Johnsongrass ([7]; 250 g ai/ha): 90 | Plant response rating (scale of 0 to 100), Lambsquarters [8, 18]: 25 | Plant response rating, Lambsquarters ([8]; 62 g ai/ha): 35 | Plant response rating, Lambsquarters ([8]; 125 g ai/ha): 70 | Plant response rating, Lambsquarters ([8]; 250 g ai/ha): 60 | Plant response rating (scale of 0 to 100), Morningglory [9, 18]: 0 | Plant response rating, Morningglory ([9]; 62 g ai/ha): 0 | Plant response rating, Morningglory ([9]; 125 g ai/ha): 10 | Plant response rating, Morningglory ([9]; 250 g ai/ha): 10 | Plant response rating (scale of 0 to 100), Nutsedge, Yellow [10, 18]: 0 | Plant response rating, Nutsedge, Yellow ([10]; 62 g ai/ha): 0 | Plant response rating, Nutsedge, Yellow ([10]; 125 g ai/ha): 0 | Plant response rating, Nutsedge, Yellow ([10]; 250 g ai/ha): 0 | Plant response rating (scale of 0 to 100), Oilseed Rape [11, 18]: 60 | Plant response rating, Oilseed Rape ([11]; 62 g ai/ha): 60 | Plant response rating, Oilseed Rape ([11]; 125 g ai/ha): 70 | Plant response rating, Oilseed Rape ([11]; 250 g ai/ha): 85 | Plant response rating (scale of 0 to 100), Ragweed [12, 18]: 25 | Plant response rating, Ragweed ([12]; 62 g ai/ha): 25 | Plant response rating, Ragweed ([12]; 125 g ai/ha): 50 | Plant response rating, Ragweed ([12]; 250 g ai/ha): 75 | Plant response rating (scale of 0 to 100), Ryegrass, Italian [13, 18]: 30 | Plant response rating, Ryegrass, Italian ([13]; 62 g ai/ha): 35 | Plant response rating, Ryegrass, Italian ([13]; 125 g ai/ha): 90 | Plant response rating, Ryegrass, Italian ([13]; 250 g ai/ha): 85 | Plant response rating (scale of 0 to 100), Soybean [14, 18]: 0 | Plant response rating, Soybean ([14]; 62 g ai/ha): 0 | Plant response rating, Soybean ([14]; 125 g ai/ha): 0 | Plant response rating, Soybean ([14]; 250 g ai/ha): 15 | Plant response rating (scale of 0 to 100), Velvetleaf [15, 18]: 0 | Plant response rating, Velvetleaf ([15]; 62 g ai/ha): 10 | Plant response rating, Velvetleaf ([15]; 125 g ai/ha): 40 | Plant response rating, Velvetleaf ([15]; 250 g ai/ha): 35 | Plant response rating (scale of 0 to 100), Waterhemp [16, 18]: 50 | Plant response rating, Waterhemp ([16]; 62 g ai/ha): 80 | Plant response rating, Waterhemp ([16]; 125 g ai/ha): 85 | Plant response rating, Waterhemp ([16]; 250 g ai/ha): 85 | Plant response rating (scale of 0 to 100), Wheat [17, 18]: 0 | Plant response rating, Wheat ([17]; 62 g ai/ha): 10 | Plant response rating, Wheat ([17]; 125 g ai/ha): 50 | Plant response rating, Wheat ([17]; 250 g ai/ha): 85
